{
  "source": "the NIST ThermoML archive (doi:10.1016/j.jct.2009.08.010)",
  "test": "molar enthalpy of transition or fusion",
  "conditions": "298.15 K; Crystal; Flow calorimetry",
  "note": "Numbers after ± are expanded uncertainties.",
  "data": [
    {"smiles": "Cc1cccc2c1sc1ccccc12", "note": "[4-methyldibenzothiophene]", "values": [
      {"measurement": "molar enthalpy of transition or fusion", "result": "21.6 ± 0.335", "unit": "kcal/mol"}
    ]}
  ]
}
